The source of these data is patent publication US20130310374A1, “Substituted Imidazoquinoline Derivatives” (PIRAMAL ENTERPRISES LIMITED`, priority 2010, published 2013).

As a reminder, the IC50 is the concentration that gives 50% inhibition. As a reminder, the inhibition is the drop in the measured response relative to a control, in per cent. A higher inhibition goes with a response far below the control.

The subject of assay [1] is A2780. The experiment in a line: Cytotoxicity propidium iodide assay, A2780. As to conditions: Homo sapiens; A2780 (ovarian), 48 hours treatment; read-out: IC50 Values in μM, C1a. Type of assay: cell-based. In a few lines: (§1)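 3000 cells/well; 18-24 h attach, 37° C./5% CO2; compound dilution series in medium (DMSO stock), 48 h; PBS wash; PI […]; freeze overnight, thaw at RT; fluorescence read; % viability vs untreated; IC50 from curve.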

Assay [2] relates to PC3. Briefly: Cytotoxicity propidium iodide assay, PC3. Type of assay: cell-based, human. The settings on record: Homo sapiens, PC-3; PC3 (prostate), 48 hours treatment; read-out: IC50 Values in μM, C2a. In a few lines:
as §1

The subject of assay [3] is MDA MB 468. The experiment in a line: Cytotoxicity propidium iodide assay, MDA MB 468. Type of assay: cell-based. As to conditions: Homo sapiens; MDA MB 468 (breast), 48 hours treatment; read-out: IC50 Values in μM, C3b. The procedure:
(§2) The assay was designed as in the reference, Anticancer Drugs, 2002, 13, 1-8, the disclosure of which is incorporated herein by reference for the teaching of the assay.
(§3) Cells from cell lines (ATCC) as mentioned in the table given below were seeded at a density of 3000 cells/well in a white opaque 96-well plate. Following incubation at 37° C./5% CO2 for a period of 18-24 hours, the cells were treated with various concentrations (stock solution was prepared in DMSO and subsequent dilutions were made in media as per ATCC guidelines) of the compounds of the present invention for a period of 48 hours. At the end of treatment, the culture medium was discarded, the cells were washed with 1×PBS and 200 μL of […] propidium iodide was added to each well. The plates were frozen at 70° C. overnight. For analysis, the plates were warmed to RT, allowed to thaw and were read in PoleStar fluorimeter with the fluorescence setting. The percentage of viable cells in the non-treated set of wells was considered to be 100 and the percentage viability following treatment was calculated accordingly. IC50 values were calculated from graphs plotted using these percentages. IC50 values for certain compounds of present invention are depicted in Table 1 and % Inhibition of certain compounds of present invention are depicted in Table 2.

Assay [4] deals with MCF7. The experiment in a line: Cytotoxicity propidium iodide assay, MCF7. Type of assay: cell-based. As to conditions: Homo sapiens; MCF7 (breast), 48 hours treatment; read-out: IC50 Values in μM, C3d. The procedure: as §2, §3
Assay [5] concerns PANC 1. The experiment in a line: Cytotoxicity propidium iodide assay, PANC 1. Format: cell-based. As to conditions: Homo sapiens; PANC 1 (pancreatic), 48 hours treatment; read-out: IC50 Values in μM, C4a. The procedure:
as §2, §3

The subject of assay [6] is AsPC 1. The experiment in a line: Cytotoxicity propidium iodide assay, AsPC 1. The settings on record: Homo sapiens, ASPC1; AsPC 1 (pancreatic), 48 hours treatment; read-out: IC50 Values in μM, C4b. Type of assay: cell-based. As to the method:
as §2
as §3, with “The plates were frozen at 70° C. overnight.” left out

Assay [7] deals with BxPC3. Briefly: Cytotoxicity propidium iodide assay, BxPC3. Type of assay: cell-based. As to conditions: Homo sapiens, BXPC-3; BxPC3 (pancreatic), 48 hours treatment; read-out: IC50 Values in μM, C4c. The procedure:
as §2, §3

In assay [8] the test system is LN229. The experiment in a line: Cytotoxicity propidium iodide assay, LN229. Type of assay: cell-based. As to conditions: Homo sapiens, LN-229; LN229 (glioblastoma), 48 hours treatment; read-out: IC50 Values in μM, C5a. As to the method:
as §2, §3

Assay [9] has as its system K562. The experiment in a line: Cytotoxicity propidium iodide assay, K562. The settings on record: Homo sapiens; K562 (CML), 48 hours treatment; read-out: IC50 Values in μM, C6a. Format: cell-based. A digest of the protocol: as §1
The test system of assay [10] is KCL22/SR. Briefly: Cytotoxicity propidium iodide assay, KCL22/SR. Type of assay: cell-based. As to conditions: Homo sapiens, KCL-22; KCL22/SR (CML), 48 hours treatment; read-out: IC50 Values in μM, C6e. As to the method: as §2, §3
Assay [11] deals with TNF-α. Briefly: Anti-CD3 mAb and anti-CD28 mAb-induced cytokine production assay, TNF-α. As to conditions: Homo sapiens, hPBMC, anti-CD3/anti-CD28, 18 hours. Format: cell-based. As to the method:
(§4) Anti-CD3 mAb and Anti-CD28 mAb-Induced Cytokine Production Assay
(§5) Preparation of anti-CD3/anti-CD28 coated plates: 96 well plates were coated with goat anti-mouse IgG, Fc (Millipore) at a concentration of 16.5 μg/mL in coating buffer ([…] NaHCO3, 3.56 g Na2CO3, pH 9.5). Following overnight incubation at 4° C., the plates were washed and then incubated with anti-CD3 (3.5 μg/mL; R&D Systems) and anti-CD28 (35 ng/mL; R&D Systems) cocktail for 3 hours. Subsequently, the plates were washed, and used for hPBMC stimulation.
(§6) hPBMC stimulation: Peripheral blood was collected from normal healthy volunteers after informed consent. Peripheral blood mononuclear cells (hPBMC) were harvested using Ficoll-Hypaque density gradient centrifugation (1.077 g/mL; Sigma Aldrich). hPBMCs were resuspended in RPMI 1640 culture medium (Gibco BRL, Pasley, UK) containing 10% FCS, 100 U/mL penicillin (Sigma Chemical Co. St Louis, Mo.) and […] streptomycin (Sigma Chemical Co. St Louis, Mo.) at 1.25×10^6 cells/mL of assay medium. 2.5×10^5 hPBMCs were added per well of 96-well plate coated with or without anti-CD3/anti-CD28 mAbs. Simultaneously, 0.025 μM of compounds of the present invention or 0.5% DMSO (vehicle control) were added to appropriate wells. The cells were then incubated for 18 hours at 37° C., 5% CO2 following which supernatants were collected, stored at […] and assayed later for TNF-α, IL-6 and IFN-γ by ELISA (OptiEIA ELISA sets; BD Biosciences). In every experiment, each condition was run in triplicate wells. In all experiments, the toxicity of test compounds was ascertained, in parallel, using the MTS (3-(4,5-dimethylthiazol-2-yl)-5-(3-carboxymethoxyphenyl)-2-(4-sulfonyl)-2H-tetrazolium) assay as described in Am. J. Physiol. Cell Physiol., 2003, 285, C813-C822.

Assay [12] concerns IFN-γ. The experiment in a line: Anti-CD3 mAb and anti-CD28 mAb-induced cytokine production assay, IFN-γ. Type of assay: cell-based. The settings on record: Homo sapiens, hPBMC, anti-CD3/anti-CD28, 18 hours. As to the method:
as §4, §5, §6

With `CC(C)(C#N)c1ccc(-n2c(=O)n(CC#N)c3cnc4ccc(-c5cnc(N)c(C(F)(F)F)c5)cc4c32)cn1` [Example 16, 2-(5-(8-(6-Amino-5-(trifluoromethyl)pyridin-3-yl)-3-(cyanomethyl)-2-oxo-2,3-dihydro-1H-imidazo[4,5-c]quinolin-1-yl)pyridin-2-yl)-2-methylpropanenitrile], the IC50 in [1] came to 0.013 µM; in [2], 0.025 µM; in assay [3], 0.013 µM; in [4], 0.03 µM; in assay [5], 0.017 µM; in [6], 0.038 µM. For the same compound, the IC50 in [7] turned out to be 0.008 µM; in assay [8] it was 0.65 µM; in assay [9], 0.4 µM; in assay [10] it was 0.23 µM. For the same compound, the inhibition at 0.025 µM was 81% in assay [11] and 80% in assay [12].

Take `COc1ccc(-n2c(=O)n(C)c3cnc4ccc(-c5cnc(N)c(C(F)(F)F)c5)cc4c32)cn1` [Example 19, 8-(6-Amino-5-(trifluoromethyl)pyridin-3-yl)-1-(6-methoxypyridin-3-yl)-3-methyl-1H-imidazo[4,5-c]quinolin-2(3H)-one]: the IC50 is less than 0.01 µM in [1]; 0.006 µM in assay [2]; 0.18 µM in [3]; 0.054 µM in assay [4]; 0.026 µM in [5]; 0.1 µM in assay [6]. Further, the IC50 in assay [7] worked out at 0.016 µM; in assay [8] it was 0.096 µM; in [9], 0.056 µM; in assay [10], 0.06 µM. Also, the inhibition at 0.025 µM in assay [11] and in assay [12] was 87% in each case.

With `Cn1c(=O)n(-c2ccc(C(C)(C)C#N)nc2)c2c3cc(-c4cnc(N)c(C(F)(F)F)c4)ccc3ncc21` [Example 3, 2-(5-(8-(6-Amino-5-(trifluoromethyl)pyridin-3-yl)-3-methyl-2-oxo-2,3-dihydro-1H-imidazo[4,5-c]quinolin-1-yl)pyridin-2-yl)-2-methylpropanenitrile], the IC50 was less than 0.005 µM in assay [1]; 0.005 µM in assay [2]; 0.06 µM in assay [3]; 0.026 µM in assay [4]; 0.01 µM in [5]; 0.019 µM in assay [6]. In addition, the IC50 in assay [7] came to 0.01 µM; in [8] it was 0.056 µM; in [9] it was 0.056 µM; in [10], 0.06 µM. For the same compound, the figures for the inhibition at 0.025 µM in assay [11] and in assay [12] were 92% and 93%, respectively.

Regarding `Cn1c(=O)n(-c2ccc(C(C)(C)C#N)nc2)c2c3cc(-c4cnc5ccccc5c4)ccc3ncc21` [Example 2, 2-Methyl-2-(5-(3-methyl-2-oxo-8-(quinolin-3-yl)-2,3-dihydro-1H-imidazo[4,5-c]quinolin-1-yl)pyridin-2-yl)propanenitrile], the IC50 in assay [1] came out at 0.024 µM; in [2], 0.068 µM; in assay [3], 0.3 µM; in [4] it was 0.09 µM; in [5], 0.1 µM; in assay [6], 0.09 µM. The results for the IC50 in [7] and in [8] were 0.04 µM and 0.55 µM, respectively. In addition, the inhibition at 0.025 µM in [11] worked out at 63%; in assay [12] it was 71%.
